This passage reports Ki results from patent publication US7951824B2, “4-aryl-pyridine-2-carboxyamide derivatives” (Hoffman-La Roche Inc., priority 2006, dated 2011).

By Ki is commonly meant the equilibrium dissociation constant of an inhibitor or competing ligand from its target.

T1 sequence (P41594 21-1180 isoform P41594-2 limits assumed): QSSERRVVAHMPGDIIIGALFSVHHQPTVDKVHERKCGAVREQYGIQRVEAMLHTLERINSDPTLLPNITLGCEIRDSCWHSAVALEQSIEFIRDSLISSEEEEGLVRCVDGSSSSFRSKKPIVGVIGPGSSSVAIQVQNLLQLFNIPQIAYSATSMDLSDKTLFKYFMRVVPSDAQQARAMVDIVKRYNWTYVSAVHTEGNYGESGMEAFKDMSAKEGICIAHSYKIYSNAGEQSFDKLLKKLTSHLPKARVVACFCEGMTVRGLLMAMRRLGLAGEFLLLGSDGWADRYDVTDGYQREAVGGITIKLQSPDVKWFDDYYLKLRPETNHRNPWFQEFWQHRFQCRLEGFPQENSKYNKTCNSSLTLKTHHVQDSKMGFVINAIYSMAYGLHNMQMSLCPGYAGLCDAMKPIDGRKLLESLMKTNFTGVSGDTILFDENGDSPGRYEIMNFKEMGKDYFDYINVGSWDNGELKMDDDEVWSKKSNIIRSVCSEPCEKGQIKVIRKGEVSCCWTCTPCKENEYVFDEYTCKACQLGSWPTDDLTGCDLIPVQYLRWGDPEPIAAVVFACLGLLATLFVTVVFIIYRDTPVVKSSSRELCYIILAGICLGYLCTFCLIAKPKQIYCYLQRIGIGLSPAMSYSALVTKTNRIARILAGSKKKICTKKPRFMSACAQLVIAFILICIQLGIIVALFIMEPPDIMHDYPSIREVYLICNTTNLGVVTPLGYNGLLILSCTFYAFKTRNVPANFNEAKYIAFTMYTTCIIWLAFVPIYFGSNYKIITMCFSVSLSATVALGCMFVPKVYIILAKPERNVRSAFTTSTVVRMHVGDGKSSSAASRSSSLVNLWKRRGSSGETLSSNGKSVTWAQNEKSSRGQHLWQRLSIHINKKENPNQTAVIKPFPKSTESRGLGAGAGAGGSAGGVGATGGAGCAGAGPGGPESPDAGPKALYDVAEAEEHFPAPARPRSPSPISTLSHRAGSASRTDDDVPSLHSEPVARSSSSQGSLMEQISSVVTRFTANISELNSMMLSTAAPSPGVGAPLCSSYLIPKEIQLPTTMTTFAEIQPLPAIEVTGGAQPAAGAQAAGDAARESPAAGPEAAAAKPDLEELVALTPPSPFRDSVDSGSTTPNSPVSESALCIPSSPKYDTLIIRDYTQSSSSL

The first assay addresses T1, human mGlu 5a receptor (Homo sapiens, UniProt P41594).
T1 construct: expressed in transfected cells; host or cells: EBNA cells (transient transfection), membrane homogenates
The experiment in a line: [3H]MPEP competition binding on membranes of EBNA cells transfected with human mGlu 5a receptor. The settings on record: competition with [3H]MPEP (2 nM), 1 h at 4° C., EBNA cell membranes. As for the experimental part:
The pharmacological activity of the compounds was tested using the following method: For binding experiments, cDNA encoding human mGlu 5a receptor was transiently transfected into EBNA cells using a procedure described by Schlaeger and Christensen [Cytotechnology 15:1-13 (1998)]. Cell membrane homogenates were stored at −80° C. until the day of assay where upon they were thawed and resuspended and polytronised in 15 mM Tris-HCl, 120 mM NaCl, 100 mM KCl, 25 mM CaCl2, 25 mM MgCl2 binding buffer at pH 7.4 to a final assay concentration of 20 μg protein/well.
Saturation isotherms were determined by addition of twelve [^3H] MPEP concentrations (0.04-100 nM) to these membranes (in a total volume of 200 μd) for 1 h at 4° C. Competition experiments were performed with a fixed concentration of [^3H]MPEP (2 nM) and IC50 values of test compounds evaluated using 11 concentrations (0.3-10,000 nM). Incubations were performed for 1 h at 4° C.
At the end of the incubation, membranes were filtered onto unifilter (96-well white microplate with bonded GF/C filter preincubated 1 h in 0.1% PEI in wash buffer, Packard Bio-Science, Meriden, Conn.) with a Filtermate 96 harvester (Packard BioScience) and washed 3 times with cold 50 mM Tris-HCl, pH 7.4 buffer. Nonspecific binding was measured in the presence of 10 μM MPEP. The radioactivity on the filter was counted (3 min) on a Packard Top-count microplate scintillation counter with quenching correction after addition of 45 μl of microscint 40 (Canberra Packard S. A., Zürich, Switzerland) and shaking for 20 min.
For binding experiments the Ki values of the compounds tested are given. The Ki value is defined by the following formula: KiIC50/[1+L/Kd] in which the IC50 values are those concentrations of the compounds tested which cause 50% inhibition of the competing radioligand ([^3H]MPEP). L is the concentration of radioligand used in the binding experiment and the Kd value of the radioligand is empirically determined for each batch of membranes prepared.
For `Cc1cc(-c2cncc(F)c2)cc(C(=O)Nc2nc(C(F)F)cs2)n1` [Example 174, 5-Fluoro-6′-methyl-[3,4′]bipyridinyl-2′-carboxylic acid (4-difluoromethyl-thiazol-2-yl)-amide], the Ki is 39 nM.
Take `Cc1cc(-c2cc(F)cc(F)c2)cc(C(=O)Nc2nc(C)c(F)s2)n1` [Example 199, 4-(3,5-Difluoro-phenyl)-6-methyl-pyridine-2-carboxylic acid (5-fluoro-4-methyl-thiazol-2-yl)-amide]: the Ki was found to be 14 nM.
For the compound `Cc1cc(-c2ccc(F)cc2)cc(C(=O)Nc2nc(C)cs2)n1` [Example 27, 4-(4-Fluoro-phenyl)-6-methyl-pyridine-2-carboxylic acid (4-methyl-thiazol-2-yl)-amide], the Ki is 55 nM.
For the compound `Cc1cccc(NC(=O)c2cc(-c3cccnc3)cc(C)n2)n1` [Example 87, 6′-Methyl-[3,4′]bipyridinyl-2′-carboxylic acid (6-methyl-pyridin-2-yl)-amide], the Ki was determined as 20 nM.
On to `Cc1cc(-c2cncc(F)c2)cc(C(=O)Nc2ccnc(Cl)c2)n1` [Example 67, 5-Fluoro-6′-methyl-[3,4′]bipyridinyl-2′-carboxylic acid (2-chloro-pyridin-4-yl)-amide], for which the Ki was found to be 37 nM.
Take `Cc1cc(-c2cc(C)nc(C(=O)Nc3nc(C#N)cs3)c2)ccn1` [Example 185, 6,2′-Dimethyl-[4,4′]bipyridinyl-2-carboxylic acid (4-cyano-thiazol-2-yl)-amide]: the inhibitory constant (Ki) was 290 nM.
For the compound `Cc1cc(-c2cc(F)cc(F)c2)cc(C(=O)Nc2nccc(Cl)n2)n1` [Example 167, 4-(3,5-Difluorophenyl)-6-methyl-pyridine-2-carboxylic acid (4-chloro-pyrimidin-2-yl)-amide], the Ki is 79 nM.
On the same count and under the same terms, as for `Cc1cc(-c2cccnc2)cc(C(=O)Nc2cccc(C#N)c2)n1` [Example 95, 6′-Methyl-[3,4′]bipyridinyl-2′-carboxylic acid (3-cyanophenyl)-amide], the figure is 411 nM.
Consider `Cc1cc(-c2ccc(F)cc2)cc(C(=O)Nc2ccn(C)n2)n1` [Example 29, 4-(4-Fluoro-phenyl)-6-methyl-pyridine-2-carboxylic acid (1-methyl-1H-pyrazol-3-yl)-amide], for which the Ki came out at 250 nM.
Same read-out and setting: as for `Cc1cc(-c2ccc(F)cc2)c(C)c(C(=O)Nc2ccn(C)n2)n1` [Example 118, 4-(4-Fluoro-phenyl)-3,6-dimethyl-pyridine-2-carboxylic acid (1-methyl-1H-pyrazol-3-yl)-amide], the figure is 714 nM; as for `Cc1cc(-c2ccc(F)cc2)cc(C(=O)Nc2ccc(F)cn2)n1` [Example 30, 4-(4-Fluoro-phenyl)-6-methyl-pyridine-2-carboxylic acid (5-fluoro-pyridin-2-yl)-amide], 280 nM.

Still in this assay, the particulars now being: competition with [3H]MPEP (2 nM), 1 h at 4° C., EBNA cell membranes, head prints no unit.
Consider `Cc1cc(-c2cc(F)ccc2F)cc(C(=O)Nc2nc(C)cs2)n1` [Example 5, 4-(2,5-Difluoro-phenyl)-6-methyl-pyridine-2-carboxylic acid (4-methyl-thiazol-2-yl)-amide], for which the Ki was 29 nM.
Consider `Cc1cc(-c2cc(F)c(F)c(F)c2)cc(C(=O)Nc2nc(C)cs2)n1` [Example 11, 6-Methyl-4-(3,4,5-trifluoro-phenyl)-pyridine-2-carboxylic acid (4-methyl-thiazol-2-yl)-amide], for which the Ki amounted to 10 nM.
Same read-out and setting: as for `Cc1cc(-c2cccc(C#N)c2)cc(C(=O)Nc2nc(C)cs2)n1` [Example 3, 4-(3-Cyano-phenyl)-6-methyl-pyridine-2-carboxylic acid (4-methyl-thiazol-2-yl)-amide], the figure is 11 nM.
